Experimental data: ChEMBL document CHEMBL4819104, “Discovery of 2-amino-3-amido-5-aryl-pyridines as highly potent, orally bioavailable, and efficacious PERK kinase inhibitors” (Bioorg Med Chem Lett, 2021)
Values after ≈ are worked out from the molar mass of the structure shown.

Tests used:
[1] = target: Epithelial discoidin domain-containing receptor 1 (Homo sapiens) (UniProt Q08345); assay: Inhibition of wild-type human partial length DDR1 (R565 to V876 residues) expressed in bacterial expression system assessed as residual activity at 10 uM by Kinomescan method relative to control
Epithelial discoidin domain-containing receptor 1 (Homo sapiens), sequence (Q08345 whole entry, the tested form may be a part): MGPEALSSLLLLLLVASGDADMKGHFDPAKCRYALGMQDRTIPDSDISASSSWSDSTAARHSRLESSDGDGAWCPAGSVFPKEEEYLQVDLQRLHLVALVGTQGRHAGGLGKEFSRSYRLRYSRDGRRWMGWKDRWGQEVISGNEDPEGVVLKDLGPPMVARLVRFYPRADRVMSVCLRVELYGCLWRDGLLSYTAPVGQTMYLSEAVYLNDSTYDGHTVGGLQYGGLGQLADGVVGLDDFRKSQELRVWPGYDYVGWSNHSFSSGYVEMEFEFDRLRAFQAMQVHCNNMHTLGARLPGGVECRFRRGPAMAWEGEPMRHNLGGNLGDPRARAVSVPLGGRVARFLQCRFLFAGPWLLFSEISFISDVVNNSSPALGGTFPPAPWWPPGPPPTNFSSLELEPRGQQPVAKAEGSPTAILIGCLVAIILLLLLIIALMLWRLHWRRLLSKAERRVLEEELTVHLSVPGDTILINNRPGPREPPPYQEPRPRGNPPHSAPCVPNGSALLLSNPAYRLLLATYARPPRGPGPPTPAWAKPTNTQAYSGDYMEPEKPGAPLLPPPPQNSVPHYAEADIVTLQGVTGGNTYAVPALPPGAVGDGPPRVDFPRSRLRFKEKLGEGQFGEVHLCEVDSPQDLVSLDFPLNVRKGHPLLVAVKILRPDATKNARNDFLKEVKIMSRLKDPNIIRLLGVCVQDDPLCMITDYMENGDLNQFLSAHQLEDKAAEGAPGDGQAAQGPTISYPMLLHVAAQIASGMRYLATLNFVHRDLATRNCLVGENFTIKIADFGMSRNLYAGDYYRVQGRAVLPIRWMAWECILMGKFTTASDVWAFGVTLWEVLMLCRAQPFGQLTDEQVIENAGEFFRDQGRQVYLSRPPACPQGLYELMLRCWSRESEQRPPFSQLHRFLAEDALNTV

[2] = target: Platelet-derived growth factor receptor beta (Homo sapiens) (UniProt P09619); assay: Inhibition of wild-type human partial length PDGFRbeta (V582 to Y1009 residues) expressed in bacterial expression system assessed as residual activity at 10 uM by Kinomescan method relative to control
Platelet-derived growth factor receptor beta (Homo sapiens), sequence (P09619 whole entry, the tested form may be a part): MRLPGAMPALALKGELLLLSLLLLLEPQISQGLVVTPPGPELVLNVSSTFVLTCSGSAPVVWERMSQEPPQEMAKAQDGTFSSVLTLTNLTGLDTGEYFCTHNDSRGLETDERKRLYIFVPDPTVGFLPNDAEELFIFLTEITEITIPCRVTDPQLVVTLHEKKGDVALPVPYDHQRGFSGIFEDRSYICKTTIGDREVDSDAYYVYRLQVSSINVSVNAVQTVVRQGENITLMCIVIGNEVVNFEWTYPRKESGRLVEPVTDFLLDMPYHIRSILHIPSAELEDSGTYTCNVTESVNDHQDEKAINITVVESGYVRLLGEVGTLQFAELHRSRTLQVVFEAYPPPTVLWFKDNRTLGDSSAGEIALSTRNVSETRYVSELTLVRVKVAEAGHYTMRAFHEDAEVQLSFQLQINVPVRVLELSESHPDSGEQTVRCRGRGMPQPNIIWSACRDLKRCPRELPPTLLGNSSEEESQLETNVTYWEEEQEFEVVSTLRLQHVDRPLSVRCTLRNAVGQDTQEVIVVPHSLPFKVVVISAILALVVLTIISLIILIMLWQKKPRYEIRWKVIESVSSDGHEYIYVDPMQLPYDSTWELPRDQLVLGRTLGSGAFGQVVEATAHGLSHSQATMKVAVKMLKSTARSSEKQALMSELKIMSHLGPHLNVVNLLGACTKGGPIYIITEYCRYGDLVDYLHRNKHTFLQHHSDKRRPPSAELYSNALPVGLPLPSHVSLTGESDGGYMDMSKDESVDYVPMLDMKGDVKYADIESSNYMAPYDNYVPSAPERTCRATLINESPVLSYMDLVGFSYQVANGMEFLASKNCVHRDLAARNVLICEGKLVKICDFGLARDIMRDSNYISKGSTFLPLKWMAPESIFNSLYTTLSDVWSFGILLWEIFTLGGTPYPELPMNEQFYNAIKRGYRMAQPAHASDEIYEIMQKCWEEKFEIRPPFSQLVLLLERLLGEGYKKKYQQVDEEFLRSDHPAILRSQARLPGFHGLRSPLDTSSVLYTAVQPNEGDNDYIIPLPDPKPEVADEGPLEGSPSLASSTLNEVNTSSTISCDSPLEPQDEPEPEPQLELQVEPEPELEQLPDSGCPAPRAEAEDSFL

[3] = target: T1, Mitogen-activated protein kinase 12 (Homo sapiens) (UniProt P53778); assay: Inhibition of wild-type human full length p38-gamma (M1 to L367 residues) expressed in mammalian expression system assessed as residual activity at 10 uM by Kinomescan method relative to control
T1 sequence (whole entry): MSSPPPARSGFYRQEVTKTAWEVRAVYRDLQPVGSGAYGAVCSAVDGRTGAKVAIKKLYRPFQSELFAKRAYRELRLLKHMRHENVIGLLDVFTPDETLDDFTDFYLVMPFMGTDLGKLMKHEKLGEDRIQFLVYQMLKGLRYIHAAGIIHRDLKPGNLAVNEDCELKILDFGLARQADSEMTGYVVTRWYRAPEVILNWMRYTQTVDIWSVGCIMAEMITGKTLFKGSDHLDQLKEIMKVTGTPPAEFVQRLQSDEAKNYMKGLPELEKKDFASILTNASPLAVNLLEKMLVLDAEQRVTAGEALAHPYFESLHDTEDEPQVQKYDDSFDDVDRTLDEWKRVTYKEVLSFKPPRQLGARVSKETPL

[4] = target: Angiopoietin-1 receptor (Homo sapiens) (UniProt Q02763); assay: Inhibition of wild-type human partial length TIE2 (N804 to T1112 residues) expressed in bacterial expression system assessed as residual activity at 10 uM by Kinomescan method relative to control
Angiopoietin-1 receptor (Homo sapiens), sequence (Q02763 whole entry, the tested form may be a part): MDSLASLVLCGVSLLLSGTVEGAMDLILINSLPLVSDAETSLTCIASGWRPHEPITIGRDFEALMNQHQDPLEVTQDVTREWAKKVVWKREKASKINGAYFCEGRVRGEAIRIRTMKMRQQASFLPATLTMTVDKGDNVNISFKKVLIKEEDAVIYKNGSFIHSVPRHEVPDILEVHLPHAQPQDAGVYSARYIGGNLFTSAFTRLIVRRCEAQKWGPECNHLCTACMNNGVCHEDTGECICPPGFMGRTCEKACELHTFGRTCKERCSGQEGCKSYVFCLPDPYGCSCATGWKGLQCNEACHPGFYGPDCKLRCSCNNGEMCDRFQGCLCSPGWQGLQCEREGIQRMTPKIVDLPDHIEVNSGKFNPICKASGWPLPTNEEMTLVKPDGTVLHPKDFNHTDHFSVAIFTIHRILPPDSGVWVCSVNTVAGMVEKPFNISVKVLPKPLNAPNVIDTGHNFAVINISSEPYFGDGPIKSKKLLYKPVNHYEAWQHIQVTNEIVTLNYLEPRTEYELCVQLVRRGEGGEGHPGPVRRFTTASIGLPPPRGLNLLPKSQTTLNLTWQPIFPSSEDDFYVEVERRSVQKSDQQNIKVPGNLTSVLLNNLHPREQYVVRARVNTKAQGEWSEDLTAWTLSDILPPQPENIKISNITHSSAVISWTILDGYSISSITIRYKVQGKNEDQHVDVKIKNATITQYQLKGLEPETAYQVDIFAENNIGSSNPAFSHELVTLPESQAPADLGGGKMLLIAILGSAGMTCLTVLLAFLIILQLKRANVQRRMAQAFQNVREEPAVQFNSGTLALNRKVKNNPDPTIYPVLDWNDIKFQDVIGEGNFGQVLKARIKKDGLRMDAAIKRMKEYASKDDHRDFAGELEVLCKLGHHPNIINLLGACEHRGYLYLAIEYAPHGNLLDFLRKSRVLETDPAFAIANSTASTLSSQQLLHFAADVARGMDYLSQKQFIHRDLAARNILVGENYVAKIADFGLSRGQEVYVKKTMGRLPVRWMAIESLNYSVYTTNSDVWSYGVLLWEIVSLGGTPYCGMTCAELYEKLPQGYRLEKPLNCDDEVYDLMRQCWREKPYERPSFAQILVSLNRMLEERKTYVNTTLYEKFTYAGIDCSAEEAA

[5] = test system: Tyrosine-protein kinase ABL1 (Homo sapiens), P00519 [F317L]; assay: Inhibition of human non-phosphorylated ABL1 F317L mutant (S229 to K512 residues) expressed in mammalian expression system assessed as residual activity at 10 uM by Kinomescan method relative to control
[6] = target: Tyrosine-protein kinase receptor UFO (Homo sapiens) (UniProt P30530); assay: Inhibition of wild-type human partial length AXL (R497 to Y821 residues) expressed in bacterial expression system assessed as residual activity at 10 uM by Kinomescan method relative to control
[7] = target: Aurora kinase B (Homo sapiens) (UniProt Q96GD4); assay: Inhibition of wild-type human partial length AURKB (D25 to A303 residues) expressed in mammalian expression system assessed as residual activity at 10 uM by Kinomescan method relative to control
Aurora kinase B (Homo sapiens), sequence (Q96GD4 whole entry, the tested form may be a part): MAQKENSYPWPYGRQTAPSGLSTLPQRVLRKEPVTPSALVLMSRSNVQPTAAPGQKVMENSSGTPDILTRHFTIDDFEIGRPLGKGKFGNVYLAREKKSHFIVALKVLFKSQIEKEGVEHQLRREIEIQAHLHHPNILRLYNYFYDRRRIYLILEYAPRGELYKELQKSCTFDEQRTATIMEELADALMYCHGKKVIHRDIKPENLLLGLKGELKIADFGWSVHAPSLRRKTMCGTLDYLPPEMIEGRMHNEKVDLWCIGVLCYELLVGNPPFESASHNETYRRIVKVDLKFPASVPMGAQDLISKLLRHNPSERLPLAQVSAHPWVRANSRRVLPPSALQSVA

[8] = target: Proto-oncogene tyrosine-protein kinase Src (Homo sapiens) (UniProt P12931); assay: Inhibition of wild-type human partial length SRC (L240 to L536 residues) expressed in bacterial expression system assessed as residual activity at 10 uM by Kinomescan method relative to control
Proto-oncogene tyrosine-protein kinase Src (Homo sapiens), sequence (P12931 2-536 limits assumed): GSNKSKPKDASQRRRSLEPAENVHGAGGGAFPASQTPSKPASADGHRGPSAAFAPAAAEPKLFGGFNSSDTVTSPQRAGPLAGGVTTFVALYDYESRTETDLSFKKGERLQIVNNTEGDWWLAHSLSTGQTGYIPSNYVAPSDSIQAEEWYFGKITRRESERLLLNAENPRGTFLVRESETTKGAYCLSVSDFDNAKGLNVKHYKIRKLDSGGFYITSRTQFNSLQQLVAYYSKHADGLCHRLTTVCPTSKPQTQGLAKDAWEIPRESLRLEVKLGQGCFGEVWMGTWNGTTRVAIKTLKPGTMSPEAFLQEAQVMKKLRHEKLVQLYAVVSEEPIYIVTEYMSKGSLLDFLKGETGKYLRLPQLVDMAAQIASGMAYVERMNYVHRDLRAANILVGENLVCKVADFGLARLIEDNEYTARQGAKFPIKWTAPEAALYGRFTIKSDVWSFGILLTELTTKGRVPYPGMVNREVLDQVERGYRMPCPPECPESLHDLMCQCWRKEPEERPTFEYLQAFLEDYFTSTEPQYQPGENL

[9] = target: Macrophage colony-stimulating factor 1 receptor (Homo sapiens) (UniProt P07333); assay: Inhibition of wild-type human partial length CSF1R (I564 to S939 residues) expressed in bacterial expression system assessed as residual activity at 10 uM by Kinomescan method relative to control
[10] = target: Mast/stem cell growth factor receptor Kit (Homo sapiens) (UniProt P10721); assay: Inhibition of wild-type human partial length KIT (I571 to D952 residues) expressed in bacterial expression system assessed as residual activity at 10 uM by Kinomescan method relative to control
[11] = target: BDNF/NT-3 growth factors receptor (Homo sapiens) (UniProt Q16620); assay: Inhibition of wild-type human partial length TRKB (Q547 to G838 residues) expressed in mammalian expression system assessed as residual activity at 10 uM by Kinomescan method relative to control
BDNF/NT-3 growth factors receptor (Homo sapiens), sequence (Q16620 32-822 limits assumed): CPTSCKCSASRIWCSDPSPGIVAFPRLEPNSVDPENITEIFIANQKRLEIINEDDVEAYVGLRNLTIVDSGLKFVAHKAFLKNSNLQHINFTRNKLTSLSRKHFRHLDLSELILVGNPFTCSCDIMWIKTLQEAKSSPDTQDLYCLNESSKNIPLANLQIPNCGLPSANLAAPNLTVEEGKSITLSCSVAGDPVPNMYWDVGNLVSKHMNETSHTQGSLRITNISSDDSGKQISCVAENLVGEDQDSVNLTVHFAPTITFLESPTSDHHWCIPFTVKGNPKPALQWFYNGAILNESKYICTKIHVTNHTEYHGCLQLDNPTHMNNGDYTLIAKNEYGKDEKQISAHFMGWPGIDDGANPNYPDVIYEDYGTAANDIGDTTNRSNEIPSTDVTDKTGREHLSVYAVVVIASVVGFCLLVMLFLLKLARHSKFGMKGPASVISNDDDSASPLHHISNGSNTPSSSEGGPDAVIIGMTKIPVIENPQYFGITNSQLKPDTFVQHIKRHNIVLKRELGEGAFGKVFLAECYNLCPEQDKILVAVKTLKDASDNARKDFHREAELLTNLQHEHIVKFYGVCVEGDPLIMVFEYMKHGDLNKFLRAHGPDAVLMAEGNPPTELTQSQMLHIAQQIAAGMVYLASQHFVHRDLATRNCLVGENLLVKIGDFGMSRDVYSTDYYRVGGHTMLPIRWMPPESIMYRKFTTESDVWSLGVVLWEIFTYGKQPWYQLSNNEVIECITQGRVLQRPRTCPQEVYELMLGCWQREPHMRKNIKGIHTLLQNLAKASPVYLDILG

[12] = target: T2, Receptor-interacting serine/threonine-protein kinase 1 (Homo sapiens) (UniProt Q13546); assay: Inhibition of wild-type human partial length RIPK1 (M1 to K305 residues) expressed in bacterial expression system assessed as residual activity at 10 uM by Kinomescan method relative to control
T2 sequence (whole entry): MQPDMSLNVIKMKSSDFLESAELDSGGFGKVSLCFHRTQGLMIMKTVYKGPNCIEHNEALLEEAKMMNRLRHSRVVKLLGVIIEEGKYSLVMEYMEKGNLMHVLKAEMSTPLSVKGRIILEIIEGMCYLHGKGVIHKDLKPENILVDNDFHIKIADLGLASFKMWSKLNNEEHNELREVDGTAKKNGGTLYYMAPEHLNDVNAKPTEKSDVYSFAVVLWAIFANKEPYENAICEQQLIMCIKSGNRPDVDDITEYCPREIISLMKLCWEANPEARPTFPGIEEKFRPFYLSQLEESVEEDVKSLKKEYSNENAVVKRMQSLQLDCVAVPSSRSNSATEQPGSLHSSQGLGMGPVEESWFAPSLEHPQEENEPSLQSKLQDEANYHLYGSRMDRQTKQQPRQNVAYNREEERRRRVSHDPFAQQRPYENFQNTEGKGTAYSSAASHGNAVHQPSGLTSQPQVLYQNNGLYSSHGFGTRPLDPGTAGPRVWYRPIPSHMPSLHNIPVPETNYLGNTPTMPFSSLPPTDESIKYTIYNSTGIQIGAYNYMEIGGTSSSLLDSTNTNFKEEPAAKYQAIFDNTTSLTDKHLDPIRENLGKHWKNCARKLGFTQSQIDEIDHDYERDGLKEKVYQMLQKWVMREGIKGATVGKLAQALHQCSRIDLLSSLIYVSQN

[13] = Half life in rat hepatocytes; format: ADME, cell-based, Hepatocyte
[14] = AUC (0 to last) in mouse at 10 mg/kg, po; format: ADME, organism-based; design: time 0 - last, route oral, dose 10 mg/kg; conditions: in vivo
[15] = Half life in human hepatocytes; format: ADME, cell-based, Hepatocyte
[16] = Plasma protein binding in mouse; format: ADME, cell-free; conditions: read-out: PPB (converted)
[17] = Efflux ratio of apparent permeability in human Caco-2 cells; format: ADME, cell-based
[18] = Half life in dog hepatocytes; format: ADME, cell-based, Canis lupus familiaris, Hepatocyte
[19] = Plasma protein binding in dog; format: ADME, cell-free, Canis lupus familiaris; conditions: read-out: PPB (converted)
[20] = Half life in mouse hepatocytes; format: ADME, cell-based, Hepatocyte
[21] = Plasma protein binding in rat; format: ADME, cell-free; conditions: read-out: PPB (converted)
[22] = Oral bioavailability in mouse at 10 mg/kg; format: ADME, organism-based; conditions: in vivo
[23] = Cmax in mouse at 10 mg/kg, po; format: ADME, organism-based; design: route oral, dose 10 mg/kg; conditions: in vivo
[24] = Half life in mouse at 10 mg/kg, po; format: ADME, organism-based; conditions: in vivo
[25] = Aqueous solubility of the compound; format: physicochemical; conditions: buffer
[26] = Apparent permeability of the compound across apical to basolateral side in human Caco-2 cells; format: ADME, cell-based; conditions: read-out: permeability
[27] = Plasma protein binding in human; format: ADME, cell-free; conditions: read-out: PPB (converted)
[28] = target: T3, Eukaryotic translation initiation factor 2-alpha kinase 3 (Homo sapiens, UniProt Q9NZJ5); assay: Inhibition of human His-tagged PERK expressed in Escherichia coli assessed as eIF2alpha phosphorylation by TR-FRET assay
T3 sequence (Q9NZJ5 whole entry): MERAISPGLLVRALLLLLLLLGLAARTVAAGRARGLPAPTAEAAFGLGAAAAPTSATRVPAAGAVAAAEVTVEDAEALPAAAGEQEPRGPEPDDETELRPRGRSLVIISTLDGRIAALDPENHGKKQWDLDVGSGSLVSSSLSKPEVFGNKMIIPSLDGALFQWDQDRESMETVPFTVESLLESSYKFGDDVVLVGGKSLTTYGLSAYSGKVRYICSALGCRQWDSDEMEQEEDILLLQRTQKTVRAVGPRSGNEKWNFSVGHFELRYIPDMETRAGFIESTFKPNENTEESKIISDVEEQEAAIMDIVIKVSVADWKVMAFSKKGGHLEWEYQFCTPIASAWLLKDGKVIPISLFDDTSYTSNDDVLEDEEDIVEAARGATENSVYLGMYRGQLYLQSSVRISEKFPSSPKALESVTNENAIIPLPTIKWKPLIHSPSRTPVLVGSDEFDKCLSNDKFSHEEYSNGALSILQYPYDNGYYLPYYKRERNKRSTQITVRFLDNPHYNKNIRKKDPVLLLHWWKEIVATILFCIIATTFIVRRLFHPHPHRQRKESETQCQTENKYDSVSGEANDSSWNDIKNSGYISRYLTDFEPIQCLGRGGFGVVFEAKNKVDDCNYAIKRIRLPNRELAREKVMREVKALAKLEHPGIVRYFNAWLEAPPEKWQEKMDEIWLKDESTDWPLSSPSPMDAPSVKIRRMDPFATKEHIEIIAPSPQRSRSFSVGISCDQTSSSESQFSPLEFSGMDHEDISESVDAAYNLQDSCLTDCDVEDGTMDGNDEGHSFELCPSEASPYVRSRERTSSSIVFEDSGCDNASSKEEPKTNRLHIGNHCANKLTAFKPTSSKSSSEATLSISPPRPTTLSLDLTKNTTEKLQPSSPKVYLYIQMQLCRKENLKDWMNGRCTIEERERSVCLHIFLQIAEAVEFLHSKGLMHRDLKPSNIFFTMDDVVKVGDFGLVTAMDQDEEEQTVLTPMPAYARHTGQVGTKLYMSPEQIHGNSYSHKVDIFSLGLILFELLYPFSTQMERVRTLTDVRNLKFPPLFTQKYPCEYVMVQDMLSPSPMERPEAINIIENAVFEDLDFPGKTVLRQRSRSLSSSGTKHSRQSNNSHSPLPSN

Compound `Cc1cccc(CC(=O)N2CCc3c2ccc(-c2cn(C)c4ncnc(N)c24)c3F)n1` has an Activity [1] of 1.3%, an Activity [2] of 0.2% and an Activity [3] of 3.7%. It also gave an Activity [4] of 5.3%, an Activity [5] of 0% and an Activity [6] of 8.2%. It also gave an Activity [7] of 5.3%, an Activity [8] of 7% and an Activity [9] of 1.8%. The Activity [10] was 0.1%, the Activity [11] was 6.5% and the Activity [12] was 0%.

With `Cc1cc(NC(=O)[C@H](O)c2cc(F)cc(F)c2)ccc1-c1cnc(N)c(C(=O)NC(C)C)c1` the half-life [13] was 9.3 min, the AUC(0-t) [14] was 2000 ng·h/mL and the half-life [15] was 4.08 h. It also gave a fraction unbound [16] of 0.017, an efflux ratio [17] of 2 and a half-life [18] of 3.12 h. The fraction unbound [19] was 0.014, the half-life [20] was 1.15 h and the fraction unbound [21] was 0.024. It also gave a bioavailability [22] of 49%, a Cmax [23] of 1600 ng/mL and a half-life [24] of 1.2 h. The solubility [25] was 31 µM (≈ 14.1 µg/mL), the Papp A→B [26] was 15 ×10⁻⁶ cm/s and the fraction unbound [27] was 0.007. For the same compound, the IC50 [28] was 4 nM.
